Data from patent US20240075003A1, “Pelargonic Acid for Use Against Viral Infections” (priority 2021, published 2024).
Entries after “also recorded” stand apart in the source; their conditions may differ.

How the values were obtained:
[1] = test system: Porcine Reproductive and Respiratory Syndrome virus (PRRS); experiment: Cytopathic effect (CPE) in Vero cells infected with PRRS virus, MCFA mixtures added; format: cell-based; design: key: 4 = total destruction of the cells; 3 = medium destruction; 2 = low destruction; 1 = no destruction; conditions: 0.1% concentration in tissue culture, 5 days post infection
PED virus = format: cell-based, Porcine Epidemic Diarrhea virus
ASF = test system: ASF; design: species or system African Swine Fever Virus
[2] = test system: African Swine Fever Virus (ASFV)

Compound | CPE (first test) [1] | CPE (second test) [1] | Protection against viral infection and cytolytic effect of the cells (PED virus) | Viral load of ASF compared with ester form or untreated feed (ASF) | Cq value for ASFV compared to positive control [2]
CCCCCC(=O)O [100% C6, caproic acid] | 3/3 | 3/3 | – | – | –
CCCCCCCC(=O)O [100% C8, caprylic acid] | 2/2 | 2/2 | – | – | –
CCCCCCCCC(=O)O [100% C9, pelargonic acid] | 2/2 | 2/2 | gave the best results | significantly reduced the viral load | –
CCCCCCCCCC(=O)O [100% C10, capric acid] | 2 | 4 | – | – | –
CCCCCCCCC(=O)O [Composition F1, pelargonic acid] | – | – | – | – | significantly increase the Cq value; also recorded: induced a statistical increase in Cq value
